Measured values: the NIST ThermoML archive (doi:10.1021/je700261b)
± gives the expanded uncertainty stated by the source.

Assay: xn = mol fraction of the nth substance listed
Details: Liquid

CCCCO [butan-1-ol] + O=C=O
Details | mass density [kg/m3]
313.1 K, 1008 kPa, x2 = 0.0251 | 798.08 ± 0.46
313.1 K, 2011 kPa, x2 = 0.0251 | 798.9 ± 0.47
313.1 K, 3006 kPa, x2 = 0.0251 | 799.7 ± 0.47
313.1 K, 4012 kPa, x2 = 0.0251 | 800.54 ± 0.48
313.1 K, 5008 kPa, x2 = 0.0251 | 801.32 ± 0.49
313.1 K, 6013 kPa, x2 = 0.0251 | 802.14 ± 0.49
313.1 K, 7004 kPa, x2 = 0.0251 | 802.94 ± 0.5
313.1 K, 8023 kPa, x2 = 0.0251 | 803.75 ± 0.51
313.1 K, 9037 kPa, x2 = 0.0251 | 804.53 ± 0.52
313.1 K, 9990 kPa, x2 = 0.9698 | 711.97 ± 1
313.1 K, 10005 kPa, x2 = 0.0251 | 805.29 ± 0.52
313.1 K, 11011 kPa, x2 = 0.0251 | 806.08 ± 0.53
313.1 K, 11014 kPa, x2 = 0.9698 | 740.16 ± 0.96
313.1 K, 12018 kPa, x2 = 0.0251 | 806.83 ± 0.54
313.1 K, 12040 kPa, x2 = 0.9698 | 761.46 ± 0.85
313.1 K, 12987 kPa, x2 = 0.9698 | 777.57 ± 0.78
313.1 K, 13003 kPa, x2 = 0.0251 | 807.56 ± 0.55
313.1 K, 14007 kPa, x2 = 0.0251 | 808.31 ± 0.56
313.1 K, 14020 kPa, x2 = 0.9698 | 792.52 ± 0.74
313.1 K, 15009 kPa, x2 = 0.0251 | 809.03 ± 0.57
313.1 K, 15028 kPa, x2 = 0.9698 | 805.22 ± 0.71
313.1 K, 16004 kPa, x2 = 0.0251 | 809.77 ± 0.58
313.1 K, 16029 kPa, x2 = 0.9698 | 816.46 ± 0.69
313.1 K, 17000 kPa, x2 = 0.9698 | 826.34 ± 0.67
313.1 K, 17005 kPa, x2 = 0.0251 | 810.49 ± 0.58
313.1 K, 18019 kPa, x2 = 0.0251 | 811.19 ± 0.59
313.1 K, 18024 kPa, x2 = 0.9698 | 835.89 ± 0.65
313.1 K, 19019 kPa, x2 = 0.0251 | 811.89 ± 0.6
313.1 K, 19027 kPa, x2 = 0.9698 | 844.46 ± 0.64
313.1 K, 20020 kPa, x2 = 0.0251 | 812.59 ± 0.61
313.1 K, 20021 kPa, x2 = 0.9698 | 852.41 ± 0.63
313.1 K, 21013 kPa, x2 = 0.9698 | 859.87 ± 0.62
313.1 K, 21027 kPa, x2 = 0.0251 | 813.29 ± 0.62
313.1 K, 22005 kPa, x2 = 0.0251 | 813.97 ± 0.63
313.1 K, 22032 kPa, x2 = 0.9698 | 867.02 ± 0.61
313.1 K, 23006 kPa, x2 = 0.9698 | 873.5 ± 0.6
313.1 K, 23011 kPa, x2 = 0.0251 | 814.69 ± 0.64
313.1 K, 24004 kPa, x2 = 0.0251 | 815.36 ± 0.65
313.1 K, 24011 kPa, x2 = 0.9698 | 879.83 ± 0.59
313.1 K, 25028 kPa, x2 = 0.0251 | 816.1 ± 0.65
313.11 K, 1990 kPa, x2 = 0.0857 | 802.76 ± 0.46
313.11 K, 3001 kPa, x2 = 0.0857 | 803.63 ± 0.47
313.11 K, 4009 kPa, x2 = 0.0857 | 804.54 ± 0.48
313.11 K, 5013 kPa, x2 = 0.0857 | 805.41 ± 0.48
313.11 K, 6014 kPa, x2 = 0.0857 | 806.27 ± 0.49
313.11 K, 7009 kPa, x2 = 0.0857 | 807.15 ± 0.5
313.11 K, 8011 kPa, x2 = 0.0857 | 807.98 ± 0.51
313.11 K, 9009 kPa, x2 = 0.0857 | 808.79 ± 0.51
313.11 K, 10011 kPa, x2 = 0.0857 | 809.65 ± 0.52
313.11 K, 10994 kPa, x2 = 0.0857 | 810.46 ± 0.53
313.11 K, 12007 kPa, x2 = 0.0857 | 811.26 ± 0.54
313.11 K, 13022 kPa, x2 = 0.0857 | 812.06 ± 0.54
313.11 K, 13999 kPa, x2 = 0.0857 | 812.83 ± 0.55
313.11 K, 15014 kPa, x2 = 0.0857 | 813.63 ± 0.56
313.11 K, 16013 kPa, x2 = 0.0857 | 814.38 ± 0.57
313.11 K, 16994 kPa, x2 = 0.0857 | 815.12 ± 0.58
313.11 K, 18005 kPa, x2 = 0.0857 | 815.89 ± 0.59
313.11 K, 19008 kPa, x2 = 0.0857 | 816.61 ± 0.59
313.11 K, 20010 kPa, x2 = 0.0857 | 817.4 ± 0.6
313.11 K, 20990 kPa, x2 = 0.0857 | 818.09 ± 0.61
313.11 K, 22028 kPa, x2 = 0.0857 | 818.85 ± 0.62
313.11 K, 22900 kPa, x2 = 0.0857 | 819.47 ± 0.63
313.11 K, 23996 kPa, x2 = 0.0857 | 820.3 ± 0.64
313.11 K, 25047 kPa, x2 = 0.0857 | 821.11 ± 0.65
313.15 K, 9101 kPa, x2 = 0.4972 | 830.36 ± 0.5
313.15 K, 10085 kPa, x2 = 0.4972 | 831.83 ± 0.51
313.15 K, 11056 kPa, x2 = 0.4972 | 833.28 ± 0.51
313.15 K, 12062 kPa, x2 = 0.4972 | 834.75 ± 0.52
313.15 K, 13043 kPa, x2 = 0.4972 | 836.14 ± 0.52
313.15 K, 14050 kPa, x2 = 0.4972 | 837.54 ± 0.53
313.15 K, 15053 kPa, x2 = 0.4972 | 838.9 ± 0.53
313.15 K, 16037 kPa, x2 = 0.4972 | 840.22 ± 0.54
313.15 K, 17055 kPa, x2 = 0.4972 | 841.56 ± 0.55
313.15 K, 18037 kPa, x2 = 0.4972 | 842.85 ± 0.55
313.15 K, 19023 kPa, x2 = 0.4972 | 844.11 ± 0.56
313.15 K, 20041 kPa, x2 = 0.4972 | 845.39 ± 0.56
313.15 K, 21003 kPa, x2 = 0.4972 | 846.61 ± 0.57
313.15 K, 22068 kPa, x2 = 0.4972 | 847.91 ± 0.57
313.15 K, 23079 kPa, x2 = 0.4972 | 849.14 ± 0.58
313.15 K, 24016 kPa, x2 = 0.4972 | 850.27 ± 0.59
313.15 K, 25033 kPa, x2 = 0.4972 | 851.48 ± 0.59
313.16 K, 10073 kPa, x2 = 0.5965 | 836.7 ± 0.53
313.16 K, 10087 kPa, x2 = 0.8663 | 805.12 ± 1.1
